Results as given in patent US8680142B2, “Ascorbate, vitamin K3 and hydroxytolans in the treatment of cancer” (Kent State University, priority 2007, dated 2014).
Where two headings read alike, the source gives them in different places.

Assays:
[1] = system: T24 Human Bladder Cancer Cells; test: MTT cytotoxicity assay against T24 cells; format: cell-based; settings: for IC50: Homo sapiens; for increase of cytotoxic potency in the combination over compound alone: VC/HT-1 200:1 after VC+VK3 pretreatment
Experimental: After 1 or 2 days of incubation at 37° C. in humidified CO2 in air, a colorimetric MTT assay (see below) was performed to evaluate the number of remaining viable T24 cells in each well.
The hydroxytolan HT-1 was dissolved in DMSO as 2 mM stock and was then subsequently diluted in MEM so that the final DMSO concentration in any well was <1%. Doubling dilutions of this stock solution were carried out as above.
This assay measures the formation of a colored product produced from a chromogenic substrate, the tetrazole 3-[4,5-dimethylthiazol-2-yl]-2,5 diphenyltetrazolium bromide (“MTT”). The yellow MTT is reduced to purple formazan in the mitochondria of living cells. A solubilization solution (typically dimethyl sulfoxide or sodium dodecyl sulfate (SDS) in dilute hydrochloric acid) is added to dissolve the insoluble purple formazan product into a colored solution. The absorbance of this colored solution is quantified by measuring at a certain wavelength (usually between 500 and 600 nm) by a spectrophotometer. […] This MTT assay is used widely to assess the cytotoxicity and selectivity of compounds such as anti-cancer drugs. The assay is suitable for rapid toxicity characterization of a test agent such as a drug formulation.
A lower CD50 indicates a greater cytotoxic activity (as a lower amount of the agent is needed to achieve a fixed level of cytotoxicity). Two agents can be compared by examining the fold-increase or decrease in their CD50 values.
The CD50 values were interpolated from the curves generated using 12 serial dilutions. When individual compounds were used a single CD50 value is shown. When a combination of two compounds was used, the CD50 of both compounds is presented. Values shown are the mean±standard error of three experiments with six readings per experiment.

Mice = settings: daily 6.5 g/Kg for 6 weeks and 2 g/Kg for 2 years; cited from earlier work
[2] = system: patients with advanced cancer; settings: 10 g oral VC; double-blind, placebo-controlled; cited from earlier work
terminal cancer patients = settings: cited from earlier work
hepatoma = settings: 10 mg/2 mL i.p. weekly for 4 weeks, cited from earlier work
[3] = system: advanced lung cancer patients; settings: VK3 with mitomycin C, cited from earlier work
[4] = cited from earlier work
humans = settings: cited from earlier work
livers of nude mice = settings: appreciably larger doses of VK3; cited from earlier work
tumor growth = settings: cited from earlier work
[5] = system: gastrointestinal cancer patients; settings: 43 patients; VK3 with mitomycin C; cited from earlier work
normal cells = settings: cited from earlier work
[6] = T-24, 24 h, incubation time 1 day, compound alone, read-out: CD50 of compounds tested Individually
[7] = T-24, 48 h, incubation time 2 days, compound alone, read-out: CD50 of compounds tested Individually
[8] = T-24, read-out: CD50 of each compound tested in combination after pretreatment with VC and VK3, incubation time 1 day, VC:HT-1 200:1 mixture, 2 h pretreatment with 150 μM VC and 1.5 μM VK3
[9] = T-24, read-out: CD50 of each compound tested in combination after pretreatment with VC and VK3, incubation time 2 days, VC:HT-1 200:1 mixture, 2 h pretreatment with 150 μM VC and 1.5 μM VK3

With `Oc1ccc(C#Cc2ccc(O)cc2)cc1` [HT-1, 4,4′-dihydroxytolan] the IC50 [1, 6] was 21.5 µM, the IC50 [1, 7] was 10.5 ± 2.7 µM and the IC50 [1, 8] was 1.13 µM. For the same molecule, the IC50 [1, 9] was 0.94 ± 0.55 µM, the “increase of cytotoxic potency in the combination over compound alone” value ([1]; after 1 day) was “about 19 fold” and the “increase of cytotoxic potency in the combination over compound alone” value ([1]; after 2 days) was “about 11 fold”.
In the case of `O=C1O[C@H]([C@@H](O)CO)C([O-])=C1O.[Na+]` [VC, sodium ascorbate], the “mortality, weight changes, blood chemistry, hematology, histology, other pathologies” value (Mice) is listed as “no abnormal rates”, the “effectiveness of oral VC” value [2] is listed as “no benefits” and the “mean survival time (MST)” value (terminal cancer patients; 100 terminal cancer patients, 10 g/day i.v. for 10 days, then 10 g/day orally, controls 50 days) is listed as over 210 days. The “MST, ovarian cancer subjects” value (terminal cancer patients; six treated subjects with ovarian cancer, controls 71 days) was 148 days, the IC50 [1, 6] was 849 µM and the IC50 [1, 7] was 896 ± 59.8 µM. For the same molecule, the IC50 [1, 8] was 226 µM and the IC50 [1, 9] was 187 ± 99 µM.
In the case of `CC1=CC(=O)c2ccccc2C1=O` [VK3, 2-methyl-1,4-naphthoquinone], the long term survivors (hepatoma) is listed as 5 out of 16, the survival (hepatoma; controls 17 days) is listed as 60 days and the median survival ([3]; 23 patients) is listed as 5.5 months. The “patients with hematologic toxicity” value [3] was 30%, the “patients with some tumor regression” value [3] was 26% and the water solubility ([4]; bisulfate form) was “water soluble”. For the same molecule, the maximum tolerated dose (humans; 48-hour i.v. infusion, followed by mitomycin C every four weeks) was 2.5 g/m^2, the toxicity (humans; 400-500 mg/day over 3-5 consecutive days) was “without any appreciable toxicity” and the hemolysis (humans; VK3 2.5 g/m^2 then mitomycin C 15 mg/m2 every four weeks) was “no hemolysis”. The hepatotoxicity (livers of nude mice) was “no hepatotoxicity”, the “inhibition of tumor growth” value (tumor growth; VK3 225 mg/kg/day with methotrexate) was 84% and the “inhibition of tumor growth” value (tumor growth; menadione 250 mg/kg/day with methotrexate 0.75 mg/kg/day) was 99%. For the same molecule, the objective response [5] was “no objective response”.
In the case of `Oc1ccc(/C=C/c2cc(O)cc(O)c2)cc1` [resveratrol, 3,5,4′-trihydroxy-trans-stilbene], the aqueous solubility [4] is given as “relatively low aqueous solubility” and the “toxicity to normal cells” value (normal cells) is given as “significantly toxic to normal cells”.
